# Key:
# HIV-1 = conditions: T-cells, monocytes, and peripheral blood mononuclear cells; cited from earlier work
# HIV-1 transcription = HIV-1 transcription inhibition in T-cells and monocytes; assay type: cell-based; conditions: T-cells versus monocytes
# HIV-1 LTR-CAT reporter = experiment: CAT assay of Tat-mediated transactivation in HCT116 WT and Dicer-/- cells; assay type: cell-based; conditions: HCT116 WT (Dicer) versus Dicer-/-; 48 hrs; Flavopiridol, CR8#13, F07#13 100 nm, 9AA 1000 nm
# Procedure: Six hours later, the transfected cells were treated with DMSO, Flavopirodol (100 nm), CR8#13 (100 nm), F07#13 (100 nm), and 9AA (1000 nm). Treated cells were incubated in complete DMEM for 48 hrs at 37° C. Cells were harvested and cell extracts were used for CAT analysis. One tenth the amount of HCT116 Dicer−/−extract compared to HCT116 WT was used for CAT analysis. […] The corresponding bar graphs in A and B show values that represent the percentage of conversion of the [14C] chloramphenicol substrate in the CAT assay.
# Various cells lines were transfected with the HIV-1 LTRCAT plasmid and pc-Tat to initiate the LTR transcription, and subsequently subjected to various drug treatments. After 48 hrs, cells were lysed and CAT assays were performed as previously described (Guendel et al, 2009; Van Duyne et al, 2008; Easley et al, 2010).
# To evaluate the role on microRNA machinery in inhibition of viral transcription activity, HCT116 colon carcinoma cell lines that either contained a WT Dicer (HCT116 WT) or lacked the Dicer protein (HCT116 Dicer-−/−) were first transfected with the HIV-1 LTR-CAT reporter construct. The HIV-1 LTR transcription was activated with pc-Tat and following incubation for 6 hours was treated with DMSO (negative control), Flavopiridol (positive control), CR8#13, F07#13, or 9AA.
# Cells were harvested 48 hrs-post treatment and processed for CAT assays (FIGS. 3A and B). […] Based on this observation the inventors hypothesize that the microRNA machinery, Dicer and Drosha, plays an inhibitory role in HIV-1 transcription.
# [1] = tested on: HIV-1 (pNL4.3) in promonocytic U937 cells; experiment: Reverse transcriptase assay of supernatants, pNL4.3 electroporated cells; assay type: cell-based; conditions: Flavopiridol 200 nm, CR8 100 nm, CR8#13 50 nm, 48 hours
# Procedure: (§1) Jurkat T-cell and promonocytic U937 cells were electroporated with 5 μg pNL4.3 followed the next day by drug treatment of Flavopiridol (200 nm), CR8 (100 nm) or CR8#13 (50 nm). Cell supernatants were collected at 48 hours post drug treatment. Viral supernatants (10 μl) were incubated in a 96-well plate with reverse transcriptase (RT) reaction mixture overnight at 37° C., and 10 μl of the reaction mix was spotted on a DEAE Filtermat paper, washed with 5% (w/v) Na2HPO4 followed by water wash, and then dried completely. RT activity was measured in a Betaplate counter.
# (§2) For electroporations, Jurkat and U937 cells were resuspended at 3 million cells in 250 μl of RPMI. Five microgram of pNL4-3 was then added to the cell suspension. Cells were pulsed a single time at 210V, 800 μF, and low resistance. Electroporated cells were immediately transferred to RPMI-1640 with L-glutamine and Penicillin/Streptomycin with 10% (v/v) FBS and plated in 6 well plates. Twenty four hours-post electroporation, cells were treated with drugs for additional 48 hrs and harvested for RT analysis. RT assays were performed as described in ((Guendel et al. 2009; Easley et al. 2010).
# (§3) The present inventors examined whether Formula I, or Formula II compounds were effective inhibiting viral transcription in cell lines infected with an HIV-1 construct. Thus, Jurkat T-cells and promonocytic U937 cells were transfected with pNL4.3 and then treated with Flavopiridol, CR8 and CR8#13. Similar to monocytes, the Dicer levels are low to undetectable in promonocytic cells (FIG. 6) and was detectable only when these cells had differentiated into macrophages with PMA treatment.
# (§4) Following drug treatment cell supernatants were collected and processed for exogenous reverse transcriptase (RT) levels.
# [2] = tested on: HIV-1 (pNL4.3) in Jurkat T-cells; experiment: as above; assay type: cell-based; conditions: Flavopiridol 200 nm, CR8 100 nm, CR8#13 50 nm, 48 hours
# Procedure: as §1, §2, §3, §4
# 3′TAR and 5′TAR microRNA = experiment: Poly-A RT-PCR of TAR microRNA in TZM-bl cells with or without TSA; assay type: cell-based, HIV-1
# Procedure: RNA was extracted 48 hrs-post drug treatment. 500 ng of RNA from the microRNA-enriched fraction was used to generate cDNA using the Quantimir kit (SBI) in order to poly adenylate small RNA species. RT reactions were performed followed by PCR in which a universal reverse primer was provided by the manufacturer. Specific microRNA forward primers are identical in sequence to the microRNA of interest. PCR products corresponding to the amplified microRNAs were separated in a 3.5% (w/v) agarose gel. The PCR products are at around 67 bp as compared with the Fermentas 1 kb DNA Plus Ladder. Increased levels of 3′TAR microRNA were produced post CR8#13 treatment.
# For poly-A RT-PCR detection of microRNAs, 500 ng of RNA from the microRNA-enriched fraction was used to generate cDNA using the Quantimir kit (SBI) according to the manufacturer's protocol. Briefly, small RNA species are poly-adenylated and then reverse transcription reactions are performed with a company-provided RT primer. For PCR, a universal reverse primer is provided by the manufacturer. Specific microRNA forward primers are identical in sequence to the microRNA of interest. PCR products corresponding to the amplified microRNAs were separated in a 3.5% (w/v) agarose gel and quantified using the Kodak 1D software.
# To determine whether the cdk inhibitors Flavopiridol, CR8, and CR8#13 increased levels of TAR microRNA in the TSA-treated and control TZM-bl cells total RNA was extracted from both TSA treated and control cells treated with Flavopiridol, CR8, and CR8#13 and processed for RT-PCR detection of microRNAs, specifically, for the presence of 3′TAR and 5′TAR molecules.
# [3] = tested on: uninfected CEM, Jurkat T-cells, and U937 cells; experiment: MTT assay, uninfected cells; assay type: cell-based; conditions: 50 nm and 10 μM
# Procedure: (§5) FIGS. 1 and 2 show screening results of CR8 derivatives on Tat-dependent transcription HIV-1 LTR. […] TZM-bl cells were transfected with 1 ug of Tat and treated the next day with DMSO, or the indicated CR8 derivative compounds at 50 nm. 48 hrs-post drug treatment, luciferase activity of the firefly luciferase was measured with the BrightGlo Luciferase Assay and luminescence was read from a 96 well plate on an EG&G Berthold luminometer. Assays were performed in triplicate, average and standard deviations are shown.
# (§6) Quantitative MTT assays were performed (FIG. 2), to further validate the cell growth inhibitory activity of certain Formula I compounds. In this study, cultured, infected ACH2, J1.1, OM10.1, U1 and uninfected CEM, Jurkat T-cells, and U937 cells were brought in contact with Formula I compounds CR8, MRT-033, and BJFP1154 (CR8#13). Cell growth inhibition study was performed at two different concentrations of the inventive compounds, a low concentration of 50 nm, and high concentration of 10 μM.
# [4] = tested on: Jurkat T-cells (uninfected); experiment: Cell viability by trypan blue exclusion, 48 hours; assay type: cell-based; conditions: Homo sapiens, Jurkat, 50 nM, 48 hrs, read-out: Inhibition Percentage Jurkat
# Procedure: (§7) TZM-bl cell lines were grown in Dulbecco's modified Eagle's medium supplemented with fetal bovine serum (FBS) (10%, v/v), 2 mM L-glutamine, and antibiotics (penicillin 100 U/ml, streptomycin […]) (cDMEM). HCT116 WT and HCT116 Dicer−/−cell lines were grown in McCoy's medium supplemented with FBS (10%, v/v), 2mM L-glutamine, and antibiotics (penicillin 100 U/ml, streptomycin […]). CEM, ACH2, Jurkat and U937 cells were grown in RPMI 1640 supplemented with FBS, L-glutamine, and antibiotics (penicillin 100 U/ml, streptomycin […]). All cell lines were maintained at 37° C. in 5% (v/v) CO2. […]
# (§8) In brief, the inhibition studies were carried out as follows. HIV-1 infected cells ACH2, J1.1, OM10.1, U1 and uninfected CEM, Jurkat T-cells, and U937 were cultured in media. The appropriate inhibitor was added at a concentration of 10 μM. Cells were treated for 48 hours and cell viability was determined using trypan blue exclusion method. Results of such a screen for 19 inhibitors is shown in Table 1 where percent dead cells are indicated each drug tested.
# (§9) Again HIV-1 infected and uninfected cells were treated with eighteen Formula I compounds at a drug concentration of 50 nm. Forty-eight hours after treatment, cytotoxicity was determined by trypan blue dye exclusion. Percent inhibition was calculated after obtaining the cell density for each well of the tissue culture plate at the end of 48 hrs.
# [5] = tested on: ACH2 cells (HIV-1 infected); experiment: Cell viability by trypan blue exclusion, 48 hours; assay type: cell-based; conditions: Human immunodeficiency virus 1, ACH-2, 48 h, read-out: Inhibition Percentage ACH2, 50 nM, 48 hrs, HIV-1 infected
# Procedure: as §7, §8, §9
# [6] = tested on: J1.1 cells (HIV-1 infected); experiment: Cell viability by trypan blue exclusion, 48 hours; assay type: cell-based; conditions: 50 nM, 48 hrs, HIV-1 infected
# Procedure: as §8, §9
# [7] = tested on: U1 cells (HIV-1 infected); experiment: Cell viability by trypan blue exclusion, 48 hours; assay type: cell-based; conditions: 50 nM, 48 hrs, HIV-1 infected
# Procedure: as §8, §9
# [8] = tested on: OM10.1 cells (HIV-1 infected); experiment: Cell viability by trypan blue exclusion, 48 hours; assay type: cell-based; conditions: Human immunodeficiency virus 1; 50 nM, 48 hrs, HIV-1 infected; read-out: Inhibition Percentage OM10.1
# Procedure: as §8, §9
# CEM cells (uninfected) = experiment: Cell viability by trypan blue exclusion, 48 hours; assay type: cell-based; conditions: 50 nM, 48 hrs
# Procedure: (§10) TZM-bl cell lines were grown in Dulbecco's modified Eagle's medium supplemented with fetal bovine serum (FBS) (10%, v/v), 2 mM L-glutamine, and antibiotics (penicillin 100 U/ml, streptomycin […]) (cDMEM). HCT116 WT and HCT116 Dicer−/−cell lines were grown in McCoy's medium supplemented with FBS (10%, v/v), 2mM L-glutamine, and antibiotics (penicillin 100 U/ml, streptomycin […]). CEM, ACH2, Jurkat and U937 cells were grown in RPMI 1640 supplemented with FBS, L-glutamine, and antibiotics (penicillin 100 U/ml, streptomycin […]). All cell lines were maintained at 37° C. in 5% (v/v) CO2.
# (§11) ACH2 cells are infected with HIV-1; TZM-bl cells contain a stably-integrated HIV-1 LTR-Luciferase reporter; CEM, Jurkat, and U937 cells are uninfected. Transfections were carried out using Attractene (Qiagen) lipid reagent. Cells were cultured to confluence and pelleted at 4° C. for 15 min at 3,000 rpm. The cell pellets were washed twice with 25 ml of phosphate-buffered saline (PBS) with Ca2+ and Mg2+ (Quality Biological) and centrifuged once more. Cell pellets were resuspended in lysis buffer (50 mM Tris-HCl, pH 7.5, 120 mM NaCl, 5 mM EDTA, 0.5%, v/v, NP-40, 50 mM NaF, 0.2 mM Na3VO4, 1 mM DTT, one complete protease cocktail tablet/50 ml (Roche) and incubated on ice for 20 min, with gentle vortexing every 5 min. Cell lysates were transferred to eppendorf tubes and were centrifuged at 10,000 rpm for 10 min. Supernatants were transferred to a fresh tube where protein concentrations were determined using Bio-Rad protein assay (Bio-Rad, Hercules, Calif.).
# as §8, §9
# U937 cells (uninfected) = experiment: Cell viability by trypan blue exclusion, 48 hours; assay type: cell-based; conditions: Homo sapiens, U-937, 50 nM, 48 hrs, read-out: Inhibition Percentage U937
# Procedure: as §10, §11, §8, §9
# [9] = tested on: HIV-1 infected and uninfected cells; experiment: Classification of inhibitors by effect on viability of infected versus uninfected cells; assay type: cell-based; conditions: 50 nM; high, moderate or poor
# From the text: The inhibitors were classified into three categories: high, moderate or poor, according to their effect on cellular viability in both HIV-1 infected and uninfected cells. Among the compounds tested in this study, CR8, a purine analog bearing a 2-pyridyl group para to the phenyl ring position 6 of the purine was the most promising drug candidate that killed HIV-1 infected cells, while having little or no effect on the death of uninfected cells.
# [10] = tested on: infected ACH2, J1.1, OM10.1, U1 cells; experiment: MTT assay, infected cells; assay type: cell-based; conditions: 50 nm and 10 μM
# Procedure: as §5, §6
structure (smiles),measurement,setting,value
CC[C@@H](CO)Nc1nc(NCc2ccc(-c3ccccn3)cc2)c2ncn(C(C)C)c2n1 [Cyc202],inhibition of HIV-1 (IC50),HIV-1,low IC50
same,inhibition of transcription,HIV-1 transcription,effectively inhibited transcription in T-cells but not in monocytes
CN1CC[C@H](c2c(O)cc(O)c3c(=O)cc(-c4ccccc4Cl)oc23)[C@H](O)C1 [Flavopiridol],inhibition of viral transcription (CAT),HIV-1 LTR-CAT reporter,inhibited viral transcription significantly better in cells that contained Dicer
same,RT levels in supernatant,[1],able to decrease RT levels in both cell lines
same,RT levels in supernatant,[2],able to decrease RT levels in both cell lines
same,3′ and 5′ TAR microRNA amount,"3′TAR and 5′TAR microRNA; TZM-bl cells treated with TSA for 7 days, then drug",higher amounts of both 3′ and 5′ TAR microRNA
same,3′ TAR microRNA amount,"3′TAR and 5′TAR microRNA; non-TSA treated TZM-bl cells, Flavopiridol 50 nm, CR8 100 nm, CR8#13 100 nm",significantly increased amount of the 3′ TAR microRNA
"CC[C@H](CO)Nc1nc(NCc2ccc(-c3ccccn3)cc2)n2ncc(C(C)C)c2n1.O=C(O)/C=C/C(=O)O [MRT-033, R-2-(8-isopropyl-4-(4-(pyridine-2-yl)benzylamino)pyrazolo[1,5-α]-1,3,5-triazine-2-ylamino)butan-1-ol]",cell inhibition of uninfected cells (MTT),[3],some cell inhibition activity of uninfected cells
same,inhibition at 0.05 µM,[4],50%
same,inhibition at 0.05 µM,[5],90%
same,Inhibition Percentage J1.1,[6],++ (~50%)
same,Inhibition Percentage U1,[7],++ (~50%)
same,inhibition at 0.05 µM,[8],75%
same,Inhibition Percentage CEM,CEM cells (uninfected),+ (~25%)
same,inhibition at 0.05 µM,U937 cells (uninfected),90%
same,Selectivity,[9],High
same,cell killing of infected cells (MTT),[10],significant cell killing of infected cells over uninfected cells
